The values that follow are results of earlier work, collected in article PMC5774433 (MedChemComm, 2017).

The data set concerns menin.

The structures appear in SMILES notation.

As to `CC1(C)CN=C(N2CCN(c3ncnc4sc(CC(F)(F)F)cc34)CC2)S1` [MI-2-2], the “increase in the binding affinity compared to its non-fluorinated counterpart” value was “over 20 fold”.
